Test [1] relates to rat diabetic nephropathy model. The experiment in a line: Pharmacological effect in rat diabetic nephropathy model (streptozotocin). The format is in vivo, rat (spontaneously hypertensive rat). To be noted: Day 27 after streptozotocin; orally once per day for 20 days from Day 8 (Example Compound 1 10 mg/kg, imidapril 2 mg/kg); mean±standard error, n=6. As to the method:
Example Compound 1 was administered to a rat diabetic nephropathy model (International Journal of Molecular Medicine, 2007, vol. 19, p. 571-579; Hypertension, 1998, vol. 32, p. 778-785), and the therapeutic effect of the nipecotic acid derivative (I) or a pharmaceutically acceptable salt thereof on chronic renal disease with diabetic nephropathy was evaluated.
Rats (spontaneously hypertensive rat, male, 12 or 13 weeks old; Charles River Laboratories Japan, Inc.) with diabetic nephropathy induced by administration of an aqueous streptozotocin (Enzo Life Sciences, Inc.) solution (40 mg/kg) into the tail vein were provided as “group with induced diabetic nephropathy”. On the other hand, rats to which water for injection was similarly administered were provided as “untreated group”.
Six weeks after administration of streptozotocin, urine was collected using a metabolic cage at room temperature for 24 hours. The urinary albumin concentration in the collected urine was measured by the ELISA method. From the urinary albumin concentration and the urine weight, the amount of urinary albumin excretion was calculated.
To rats showing pathological conditions of diabetic nephropathy in the group with induced diabetic nephropathy, Example Compound 1 (10 mg/kg) or a positive control compound imidapril (2 mg/kg) was orally administered once per day for 20 days from Day 8 after the administration of streptozotocin. […]
After the last administration of the test substance on Day 27 after administration of streptozotocin, urine was collected using a metabolic cage at room temperature for 24 hours. The urinary albumin concentration in the collected urine was measured by the ELISA method. From the urinary albumin concentration and the urine weight, the amount of urinary albumin excretion was calculated. In addition, on Day 18 after administration of streptozotocin, the systemic systolic pressure was measured by the tail-cuff method. On Day 29 after administration of streptozotocin, blood was collected from the abdominal aorta of each rat, and the plasma glucose concentration was measured. […]

In the next test the target is T1, recombinant human sEH (Homo sapiens, UniProt P34913).
T1 construct: purchased Cayman
T1 sequence (P34913 1-555): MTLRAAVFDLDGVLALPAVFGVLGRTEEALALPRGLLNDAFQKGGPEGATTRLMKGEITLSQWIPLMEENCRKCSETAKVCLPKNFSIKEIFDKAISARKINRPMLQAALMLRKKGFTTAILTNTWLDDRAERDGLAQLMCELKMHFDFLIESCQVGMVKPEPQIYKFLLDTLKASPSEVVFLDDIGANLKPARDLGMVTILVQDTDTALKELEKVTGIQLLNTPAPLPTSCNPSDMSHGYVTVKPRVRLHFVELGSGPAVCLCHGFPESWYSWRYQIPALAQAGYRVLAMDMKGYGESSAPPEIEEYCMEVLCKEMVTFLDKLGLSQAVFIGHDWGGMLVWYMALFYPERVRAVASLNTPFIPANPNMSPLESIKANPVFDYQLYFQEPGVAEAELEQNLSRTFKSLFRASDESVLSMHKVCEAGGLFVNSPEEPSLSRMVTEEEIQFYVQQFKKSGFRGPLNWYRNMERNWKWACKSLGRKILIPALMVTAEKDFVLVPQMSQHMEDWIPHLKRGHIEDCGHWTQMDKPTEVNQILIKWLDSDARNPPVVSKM
The test is described as follows: In vitro evaluation test for sEH inhibitory activity. The format is biochemical. The note with it: recombinant human sEH 0.026 μg/mL, fluorescent substrate 6.25 μmol/L, room temperature. As to the method: According to the method described in a known document (Analytical Biochemistry, 2005, vol. 343, p. 66-75), the sEH inhibitory activity of each nipecotic acid derivative (I) or a pharmaceutically acceptable salt thereof was evaluated using human sEH.
A recombinant human sEH (final concentration, 0.026 μg/mL; Cayman) was incubated with each test compound in 25 mM Bis-Tris-HCl buffer (pH 7.0) supplemented with 0.1 mg/mL BSA at room temperature for 30 minutes. Thereafter, cyano(6-methoxynaphthalen-2-yl)methyl 2-(3-phenyloxiran-2-yl)acetate (final concentration, 6.25 μmol/L; Cayman) was added thereto as a fluorescent substrate, and the resulting mixture was incubated at room temperature for 20 minutes. The reaction was then stopped by addition of ZnSO4 (final concentration, 0.2 mol/L), and the fluorescence intensity was measured (Fusion α (Packard); Excitation: 330 nm, Emission:485 nm).
The fluorescence intensity observed with addition of neither sEH nor a test compound was regarded as the sEH enzymatic reaction rate of 0%, and the fluorescence intensity observed with addition of sEH but without addition of a test compound was regarded as the sEH enzymatic reaction rate of 100%. From the obtained fluorescence intensity, the sEH enzymatic reaction rate of each test compound was calculated to determine IC50.

The text below walks through data of patent US20150065717A1, “NIPECOTIC ACID DERIVATIVE AND USE THEREOF FOR MEDICAL PURPOSES” (Toray Industries, Inc., priority 2012, published 2015).

A word on the IC50: it is the concentration at which inhibition is half-maximal.

Take `CCOC(=O)[C@H](CCc1ccccc1)N[C@@H](C)C(=O)N1C(=O)N(C)C[C@H]1C(=O)O` [imidapril, reference compound]: the “amount of urinary albumin excretion” value in test [1] amounted to 5.66 ± 0.91 mg/day.

With `O=C(Nc1ccc(C(F)(F)F)cn1)[C@@H]1CCCN(C(=O)C2(O)CCCCC2)C1` [Comparative Example Compound 1, (R)-1-(1-hydroxycyclohexanecarbonyl)-N-(5-(trifluoromethyl)pyridin-2-yl)piperidine-3-carboxamide, reference compound], the IC50 on recombinant human sEH was greater than 20 nM.

For the molecule `CC(C)(O)C(=O)N1CCC[C@@H](C(=O)NCc2ccc(C#N)cc2OC(F)(F)F)C1` [Example Compound 16, (R)—N-(4-cyano-2-(trifluoromethoxy)benzyl)-1-(2-hydroxy-2-methylpropanoyl)piperidine-3-carboxamide], on recombinant human sEH, the half-maximal inhibitory concentration (IC50) stood at 2.4 nM.

With `N#Cc1ccc(CNC(=O)[C@@H]2CCCN(C(=O)C3(C#N)CC3)C2)c(OC(F)(F)F)c1` [Example Compound 23, (R)—N-(4-cyano-2-(trifluoromethoxy)benzyl)-1-(1-cyanocyclopropanecarbonyl)piperidine-3-carboxamide], at recombinant human sEH, the IC50 came out at 1.8 nM.

Regarding `CC[C@@H](NC(C)=O)C(=O)N1CCC[C@@H](C(=O)NCc2ccc(C#N)cc2OC(F)(F)F)C1` [Example Compound 21, (R)-1-((R)-2-acetamidobutanoyl)-N-(4-cyano-2-(trifluoromethoxy)benzyl)piperidine-3-carboxamide], on recombinant human sEH, the IC50 came to 0.9 nM.

For `N#Cc1ccc(CNC(=O)[C@@H]2CCCN(C(=O)C3(NC(=O)C4CC4)CCC3)C2)c(OC(F)(F)F)c1` [Example Compound 29, (R)—N-(4-cyano-2-(trifluoromethoxy)benzyl)-1-(1-(cyclopropanecarboxamide)cyclobutanecarbonyl)piperidine-3-carboxamide], on recombinant human sEH, the concentration for half-maximal inhibition (IC50) was 1.7 nM.

With `CS(=O)(=O)NC1(C(=O)N2CCC[C@@H](C(=O)NCc3ccc(C#N)cc3OC(F)(F)F)C2)CC1` [Example Compound 3, (R)—N-(4-cyano-2-(trifluoromethoxy)benzyl)-1-(1-(methylsulfonamido)cyclopropanecarbonyl)piperidine-3-carboxamide], the 50% inhibitory concentration (IC50) on recombinant human sEH was found to be 3.5 nM.

For the molecule `CCC(=O)N[C@@H](C(=O)N1CCC[C@@H](C(=O)NCc2ccc(C#N)cc2OC(F)(F)F)C1)C(C)(C)O` [Example Compound 31, (R)—N-(4-cyano-2-(trifluoromethoxy)benzyl)-1-((R)-3-hydroxy-3-methyl-2-propionamidobutanoyl)piperidine-3-carboxamide], on recombinant human sEH, the IC50 was 1.3 nM.

With `CC(C)(O)[C@@H](NS(C)(=O)=O)C(=O)N1CCC[C@@H](C(=O)NCc2ccc(Cl)cc2Cl)C1` [Example Compound 41, (R)—N-(2,4-dichlorobenzyl)-1-((R)-3-hydroxy-3-methyl-2-(methylsulfonamido)butanoyl)piperidine-3-carboxamide], on recombinant human sEH, the IC50 stood at 1.1 nM.

For the molecule `CC(=O)N[C@H](C)C(=O)N1CCC[C@@H](C(=O)NCc2ccc(C#N)cc2OC(F)(F)F)C1` [Example Compound 24, (R)-1-((R)-2-acetamidopropanoyl)-N-(4-cyano-2-(trifluoromethoxy)benzyl)piperidine-3-carboxamide], the IC50 at recombinant human sEH turned out to be 2.5 nM.

Turning to `CC(C)(C)C(=O)NC1(C(=O)N2CCC[C@@H](C(=O)NCc3ccc(C#N)cc3OC(F)(F)F)C2)CCC1` [Example Compound 7, (R)—N-(4-cyano-2-(trifluoromethoxy)benzyl)-1-(1-pivalamidocyclobutanecarbonyl)piperidine-3-carboxamide], at recombinant human sEH, the IC50 is 0.8 nM.

For `CS(=O)(=O)NC1(C(=O)N2CCC[C@@H](C(=O)NCc3ccc(C#N)cc3OC(F)(F)F)C2)CCC1` [Example Compound 5, (R)—N-(4-cyano-2-(trifluoromethoxy)benzyl)-1-(1-(methylsulfonamido)cyclobutanecarbonyl)piperidine-3-carboxamide], the concentration for half-maximal inhibition (IC50) on recombinant human sEH came to 1 nM.

As to `CCS(=O)(=O)NC1(C(=O)N2CCC[C@@H](C(=O)NCc3ccc(C#N)cc3OC(F)(F)F)C2)CC1` [Example Compound 13, (R)—N-(4-cyano-2-(trifluoromethoxy)benzyl)-1-(1-(ethylsulfonamido)cyclopropanecarbonyl)piperidine-3-carboxamide], at recombinant human sEH, the IC50 stood at 1.4 nM.

On to `CC[C@@H](O)C(=O)N1CCC[C@@H](C(=O)NCc2ccc(C#N)cc2OC(F)(F)F)C1` [Example Compound 43, (R)—N-(4-cyano-2-(trifluoromethoxy)benzyl)-1-((R)-2-hydroxybutanoyl)piperidine-3-carboxamide], for which the half-maximal inhibitory concentration (IC50) at recombinant human sEH turned out to be 1.2 nM.

Turning to `CC(C)(NS(C)(=O)=O)C(=O)N1CCC[C@@H](C(=O)NCc2ccc(C(N)=O)cc2OC(F)(F)F)C1` [Example Compound 14, (R)—N-(4-carbamoyl-2-(trifluoromethoxy)benzyl)-1-(2-methyl-2-(methylsulfonamido)propanoyl)piperidine-3-carboxamide], the concentration for half-maximal inhibition (IC50) at recombinant human sEH was determined as 1.5 nM.

As for `CC(C)(C)C(=O)N1CCC[C@@H](C(=O)NCc2ccc(C#N)cc2OC(F)(F)F)C1` [Example Compound 17, (R)—N-(4-cyano-2-(trifluoromethoxy)benzyl)-1-pivaloylpiperidine-3-carboxamide], on recombinant human sEH, the half-maximal inhibitory concentration (IC50) is 1.1 nM.

As for `CC(C)(C)C(=O)NC1(C(=O)N2CCC[C@@H](C(=O)NCc3ccc(C#N)cc3OC(F)(F)F)C2)CC1` [Example Compound 27, (R)—N-(4-cyano-2-(trifluoromethoxy)benzyl)-1-(1-pivalamidocyclopropanecarbonyl)piperidine-3-carboxamide], on recombinant human sEH, the IC50 was found to be 2.2 nM.

Regarding `CC(=O)N[C@@H](C(=O)N1CCC[C@@H](C(=O)NCc2ccc(C#N)cc2OC(F)(F)F)C1)C(C)C` [Example Compound 11, (R)-1-((R)-2-acetamido-3-methylbutanoyl)-N-(4-cyano-2-(trifluoromethoxy)benzyl)piperidine-3-carboxamide], the IC50 on recombinant human sEH was 0.5 nM.
